A word on the inhibition: it is the change of the read-out against control, counted positive when it falls.

In one test the target is T1, brain MAO-A (Rattus norvegicus, UniProt P21396).
T1 construct: Rat brain mitochondrial fractions were prepared; from tissue; host or cells: rat brain mitochondrial fraction
T1 sequence (P21396 1-526): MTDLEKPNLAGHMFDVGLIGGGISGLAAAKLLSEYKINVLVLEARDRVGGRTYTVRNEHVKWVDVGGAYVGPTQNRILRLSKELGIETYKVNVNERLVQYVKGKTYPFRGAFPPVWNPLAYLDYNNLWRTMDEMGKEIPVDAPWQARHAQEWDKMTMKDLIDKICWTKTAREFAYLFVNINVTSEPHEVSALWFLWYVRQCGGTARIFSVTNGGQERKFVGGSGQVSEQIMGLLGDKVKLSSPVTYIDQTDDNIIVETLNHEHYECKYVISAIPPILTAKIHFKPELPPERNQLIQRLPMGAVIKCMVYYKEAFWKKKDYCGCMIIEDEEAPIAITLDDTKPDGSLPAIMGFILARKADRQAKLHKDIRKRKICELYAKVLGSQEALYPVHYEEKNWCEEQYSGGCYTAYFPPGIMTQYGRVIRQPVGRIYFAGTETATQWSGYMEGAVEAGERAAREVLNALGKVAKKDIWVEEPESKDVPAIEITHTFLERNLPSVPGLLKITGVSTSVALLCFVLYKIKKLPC
The test can be described thus: Brain MAO-A activity in CMS-treated rats. Type of test: in vivo. As to conditions: brain of CMS-treated rats, 10 mg/kg oral daily for 6 weeks. The procedure: (§1) 3. Administration and Doses • Non CMS-treated Saline group: 10 ml/kg/day. • CMS-treated Saline group: 10 ml/kg/day. • Composition I (200) group: 200 mg/kg/day. • Composition I (150) group: 150 mg/kg/day. • Fluoxetine group (positive control): 10 mg/kg/day.
(§2) Animals therein were divided randomly into the following four subgroups: • (1) Composition I (200) group: received composition I at 200 mg/kg/day; • (2) Composition I (150) group: received composition I at 150 mg/kg/day; • (3) Fluoxetine group: received fluoxetine 10 mg/kg/day; (positive control); • (4) CMS-treated saline group: received saline 10 mL/kg/day. (negative control).
(§3) 24 h after the last test of sucrose intake, between 10:00 a.m. and 11:00 a.m., all animals were decapitated quickly to get venous blood. Serum was separated by centrifugation at 3000 rpm and stored at −20° C. until assay of cortisol concentration. Brain tissues were rapidly removed on the ice-plate. The tissues were washed with cold saline, blotted dry and stored at −80° C. until assays of monoamine oxidase A and B (MAO-A and MAO-B) activity.
(§4) Rat brain mitochondrial fractions were prepared following the procedure described in Schurr and Livne, 1976. MAO activity was assessed by spectrophotometer as described in Yu et al., 2002. […] The organic phase was measured at wavelength of 280 nm and 242 nm for MAO-A and MAO-B assay with spectrophotometer, respectively. […]

The target of another test is T2, brain MAO-B (Rattus norvegicus, UniProt P19643).
T2 construct: Rat brain mitochondrial fractions were prepared; from tissue; host or cells: rat brain mitochondrial fraction
T2 sequence (P19643 1-520): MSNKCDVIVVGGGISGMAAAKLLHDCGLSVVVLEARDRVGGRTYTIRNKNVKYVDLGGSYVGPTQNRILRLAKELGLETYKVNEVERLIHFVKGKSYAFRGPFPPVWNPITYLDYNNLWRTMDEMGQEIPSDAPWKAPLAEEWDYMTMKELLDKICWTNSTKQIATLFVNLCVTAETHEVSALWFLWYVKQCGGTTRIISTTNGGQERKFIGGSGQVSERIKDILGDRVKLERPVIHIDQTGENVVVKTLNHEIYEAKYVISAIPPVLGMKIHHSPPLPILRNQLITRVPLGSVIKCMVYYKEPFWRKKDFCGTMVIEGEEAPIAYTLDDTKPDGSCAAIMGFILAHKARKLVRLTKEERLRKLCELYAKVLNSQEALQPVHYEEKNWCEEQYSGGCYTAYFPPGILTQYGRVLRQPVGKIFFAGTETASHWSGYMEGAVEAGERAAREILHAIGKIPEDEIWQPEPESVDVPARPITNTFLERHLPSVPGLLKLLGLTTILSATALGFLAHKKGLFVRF
The test can be described thus: Brain MAO-B activity in CMS-treated rats. Type of test: in vivo. The settings on record: brain of CMS-treated rats, 10 mg/kg oral daily for 6 weeks. The procedure: as §1, §2, §3, §4

Each structure is given as a SMILES string. Where a name gives a salt, the structure may show the parent alone.

As to `CNCCC(Oc1ccc(C(F)(F)F)cc1)c1ccccc1` (stereo not shown) [Fluoxetine, Fluoxetine Hydrochloride], on brain MAO-A, the “MAO activity A” value came to 78.05 ± 3.68 U/g protein. Moreover, the inhibition at 10 mg/kg on brain MAO-A (rat) is 16.4%; on brain MAO-B (rat) it was 54%. Besides, the “MAO activity B” value at brain MAO-B was determined as 54.50 ± 3.56 U/g protein.
